Where a SMILES comes first, the peptide text is derived from it. The star is where a group is joined. Cbz = O=C(OCc1ccccc1)*
Key:
[1] = target: T1, proteasome (Saccharomyces cerevisiae, UniProt P23724+P30656); assay: Suppression of damage-induced histone degradation by proteasome inhibition; type: cell-based; details: Zeocin-damaged cells
T1 construct: endogenous in cells; host or cells: Saccharomyces cerevisiae (budding yeast) cells treated with Zeocin

[2] = system: S phase chromatin; assay: Super-resolution microscopy of TetR-mCherry tagged locus 3D volume (chromatin expansion); type: cell-based, Saccharomyces cerevisiae; details: cells fixed 30 min after exposure to different amounts of Zeocin
Description: Structured illumination images were acquired on a Zeiss Elyra S.1 microscope with a Andor iXon 885 EMCCD camera using a HR diode 488 […] solid state laser, BP 525-580+LP 750 filter and a PLAN-APOCHROMAT 63×N.A. 1.4 oil DIC objective lens. Cells were first fixed in PFA 4%, washed 3 times in PBS and then attached to a thin SIM grade Zeiss 1.5 glass coverslip using Concanavalin A. Cells were fully sectioned by 50-65 slices with […] intervals taken at 60 ms exposures per slice using 5 rotations of the illumination grid. Brightfield images of the cells were also acquired using an X-Cite PC 120 EXFO Metal Halide lamp. Zen Black was used to process the images using automatic settings with the Raw Scale option selected. 3D stacks were then analyzed by using pixel classification and a custom Matlab script to determine the spot volumes and other features as follows. […] Features calculated at the labeled pixels and their local neighborhood are then used to train a pixel classifier based on a Random Forest ensemble learning method. […] Finally, the program generates an ascii file where the key features like volume and solidity 3D and descriptive statistics are listed for all detected nuclei and foci. The solidity factor is calculated as the proportion of pixels in the 3D convex hull. […]

[3] = system: chromatin fiber; assay: 3D distance between two differentially labeled genomic loci (chromatin flexibility); type: cell-based, Saccharomyces cerevisiae; details: for average inter-spot distance between lacI-GFP and TetR-mRFP tagged loci after DNA damage: loci 320 kbp apart on Chr XIV
Description: (§1) Live microscopy was done on a temperature controllable Olympus IX81 microscope with a Yokogawa CSU-X1 scanning head equipped with two EM-CCD EvolveDelta (Photometrics) cameras, an ASI MS-2000 Z-piezo stage and a PlanApo x100, NA 1.45 total internal reflection fluorescence microscope oil objective and Visiview software. For mRFP-GFP or mRFP-CFP high-speed tracking, fluorophores were excited with lasers at 561 nm (mCherry or mRFP) and 491 nm (GFP) or 440 nm (CFP) and emitted fluorescence was acquired simultaneously on separate cameras (Semrock FF01-617/73-25 filter for mCherry/mRFP and Semrock FF02-525/40-25 filter for GFP or Semrock FF01-475/42-25 for CFP). High-speed time-lapse series were conducted taking 8 optical slices per stack either every 80 ms for 1 min or 300 ms for 2 min, with 10 ms exposure times per slice respectively. Time-lapse image stacks were analyzed as in Dion et al. 9, using a custom made ImageJ (FIJI) plug-in36 to extract coordinates of locus position from the movies. Phototoxicity was tested by exposing wild-type cells (GA-6879) to standard imaging conditions and following outgrowth for 5 h by morphological analysis, comparing them with unexposed cells. Time-series acquired from Strains GA-9227 and GA-9777 (Two-spot data) were deconvolved using Huygens Remote Manager, channel-aligned and cropped to contain one single cell/nucleus with the two respective fluorescent spots. Spot tracking over time was done with the ImageJ plugin TrackMate included in Fiji37. Boxplot graphs were generated by plotting all measured distances of treated or untreated cells. Relative MSD analysis was performed with KNIME38. For each frame, the distance vector of tracks in two channels was measured by selecting the two spots with minimal distance. The inventors performed an MSD analysis on the distance vectors for all frames and tracks with a maximum MSD(t) value bigger than 10 μm^2 were considered as outliers (due to mis-matching two distant tracks) and removed from the analysis. Relative MSD vs. t was averaged over all tracks and plotted using R.

[4] = system: core histones H2A, H2B, H3 and H4; assay: Quantitative SILAC mass spectrometry of histone abundance before and after Zeocin; type: cell-based, Saccharomyces cerevisiae; details: acute treatment (1 hour) with Zeocin
Protocol: For SILAC based mass spectrometry, lysine and arginine double labeling of the lys2A arg4A strain yAG-06A was achieved by growth for at least ten generations in “heavy” medium as described previously in Gruhler et al. 34. After growth to LOG phase or at G1 cell cycle arrest, “light” labeled cells (or “heavy” labeled cells for label-swap controls) were treated for 1 h with Zeocin and mixed 1:1 based on exact cell count with “heavy” labeled (“light” for label-swap control), non-treated control cells. Prior to mixing, FACS and Western blot samples were taken to test for cell cycle distribution and DDC activation.
Chromatin fractionation was performed as previously described with the modification that chromatin obtained from SILAC labeled yeast samples was resuspended in Urea Buffer (50 mM TRIS pH 7.5, 6 M Urea, 1% SDS, 5 mM EDTA) sonicated for optimal solubilizing of proteins followed by a TCA protein precipitation step prior to downstream mass spectrometric analysis. To avoid carbamylation in urea buffer, samples were kept below 20° C. and quickly processed. Control samples from whole cell extract (WCE), supernatant (SUP) and chromatin fraction (CHR) were analyzed with SDS-PAGE (Novex 8-16% Tris-Glycine Gel, Invitrogen) gel electrophoresis followed by Coomassie staining. […]

[5] = system: histone H3/H4; assay: Quantitative immunoblot analysis of histone H3/H4 loss and DDC activation; type: cell-based, Saccharomyces cerevisiae
Protocol: The total protein content in the relevant samples was determined with the Quant-iT protein assay kit (Thermo Scientific) and 8.75 μg of total protein was loaded and run on Criterion TGX Stain-Free 8-16% (Biorad) gels under SDS denaturing electrophoresis conditions. Rapid fluorescent detection of all proteins in the gel or on the membrane was done according to the manufacturer's specifications and protein transfer on PVDF membranes was performed using the Trans-Blot Turbo system. Rad53 protein was detected using a custom-made mouse monoclonal antibody (GenScript) against FHA2 domain of Rad53. Anti-yH2A was similarly a custom-made polyclonal antibody, that is specific for phospho-S129 in yeast H2A.

[6] = system: nucleosome occupancy; assay: Genome-wide nucleosome mapping (MNase-seq with Candida glabrata spike-in); type: cell-based, Saccharomyces cerevisiae; details: Zeocin 500 μg/ml for 1 hour; reads normalized to C. glabrata
Protocol: Strains tested for changes in nucleosome occupancy (GA-6879 and GA-8386) were grown in appropriate media to OD600=0.8. Cultures were split into two and one of them was treated with Zeocin (500 μg/ml) for 1 hour. At this point the OD600 absorbance of each sample was measured and Candida glabrata cells were spiked in to 1/10 according to the sample OD600. Cells were washed three times with ice cold TBS (20 MM Tris.HCl pH8.0 and 150 mM NaCl) and lysed by beat beating in MNase digestion buffer (10 mM Tris pH 8.0, 50 mM NaCl, 5 mM MgCl2, 1 mM CaCl2), 1 mM beta-mercaptoethanol, 0.5 mM spermidine, 0.075% NP40). The obtained chromatin samples were MNase digested to isolate mono-nucleosomes and sequencing libraries were prepared according to the method described in Wiechens, N. et al. (Wiechens et al. 2016). Paired end libraries of MNase digested chromatin were sequenced using Illumina HiSeq technology. Fastq files containing raw reads were aligned to the S. cerevisiae and C. glabrata reference genomes by Bowtie2 with option of maximum fragment length 500 for nucleosome fragments. The nucleosome dyads at each position were calculated in a defined window flanking the transcription start site (TSS). […] The reads were further normalized by dividing the fraction of C. glabrata reads in the sample. […]

[7] = system: Histone H3 (H3-CFP); assay: Time-lapse live cell tracking of H3-CFP in microfluidic chambers; type: cell-based, Saccharomyces cerevisiae
Protocol: For H3-CFP (Strain GA-3364 and derivatives) and 2-foci (Strain GA-9777) live cell fluorescent microscopy, LOG phase cells were trapped with 3 pulses of 5 psi pressure in CellASIC plates of the ONIX microfluidic perfusion system (Merck Millipore). All perfusions were done at a continuous flow rate of 2 psi pressure. After a 20-30 minute recovery phase, cells were treated for 30 minutes with the indicated amount of Zeocin prior to high-speed CFP-RFP tracking microscopy. The recovery phase of H3-CFP tagged cells was 20 minutes after which they were treated with a pulse of Zeocin for 1 hour and H3-CFP fluorescence was followed for additional 40 minutes after treatment.
as §1, with “Time-series acquired from Strains GA-9227 and GA-9777 (Two-spot data) were deconvolved using Huygens Remote Manager, channel-aligned and cropped to contain one single cell/nucleus with the two respective fluorescent spots. Spot tracking over time was done with the ImageJ plugin TrackMate included in Fiji37.” left out, “Relative MSD analysis was performed with KNIME38.” left out, “The inventors performed an MSD analysis on the distance vectors for all frames and tracks with a maximum MSD(t) value bigger than 10 μm^2 were considered as outliers (due to mis-matching two distant tracks) and removed from the analysis. Relative MSD vs. t was averaged over all tracks and plotted using R.” left out

| Molecule | effect on DNA damage-induced H3 or H4 degradation [1] | decompaction of S phase chromatin (3D TetR-mCherry foci volumes) [2] | average inter-spot distance between lacI-GFP and TetR-mRFP tagged loci after DNA damage ([3]; G1 cells, printed 0.97-1.2 (before-after)) [μm] | average inter-spot distance between lacI-GFP and TetR-mRFP tagged loci after DNA damage ([3]; S-phase cells, printed 0.99-1.12 (before-after)) [μm] | inter-spot dynamics and distances between CFP-lacI and TetR-mRFP tagged foci ([3]; loci 50 kbp apart on Chr III, real time) | levels of the histone variant Htz1 (H2A.Z) [4] | loss of all core histones H2A, H2B, H3 and H4 (ratios of non-modified histone peptides, damage over control L/H) [4] | histone depletion in histone-shutdown strain with constitutive H3/H4 expression ([5]; growth in media with low level galactose, compared with cells with endogenous histone genes) | DDC activation (yH2A signal) ([5]; quantitative immunoblot) | relationship between histone H3/H4 loss and Zeocin treatment ([5]; quantitative immunoblot) | nucleosome occupancy within promoters and across coding regions [6] | time of Zeocin exposure within which histone H3 degradation occurred ([7]; H3-CFP fluorescence) [min] | Histone H3 degradation compared to undamaged cells ([7]; H3-CFP fluorescence, within 30 minutes of Zeocin exposure) [%] | DSBs per genome generated ([7]; pulse-treated for 1 h with Zeocin) |
| --- | --- | --- | --- | --- | --- | --- | --- | --- | --- | --- | --- | --- | --- | --- |
| CC(C)C[C@@H](C=O)NC(=O)[C@H](CC(C)C)NC(=O)[C@H](CC(C)C)NC(=O)OCc1ccccc1 [MG132] (Cbz-Leu-Leu-Leu-aldehyde) | suppressed |  |  |  |  |  |  |  |  |  |  |  |  |  |
| Zeocin |  | dose-dependent decompaction | 1.2 | 1.12 | robust increase | remained stable | 20-40% | same depletion effect | robust DDC activation | dose-dependent relationship | drop in nucleosome occupancy | ≤ 30 | ~30 | 4-7 DSBs per genome |
